In brackets after ≈: the same amount, converted by molar mass.
Key:
Assay type in all cases: functional
Enterococcus faecium [1] = assay: Antibacterial activity against Enterococcus faecium 35682 assessed as inhibition of bacterial growth incubated for 18 hrs by broth microdilution method
Staphylococcus aureus [2] = assay: Antibacterial activity against Staphylococcus aureus 6917 assessed as inhibition of bacterial growth incubated for 18 hrs by broth microdilution method
Enterococcus faecium [3] = assay: Antibacterial activity against Enterococcus faecium 36235 assessed as inhibition of bacterial growth incubated for 18 hrs by broth microdilution method
Enterococcus faecalis [4] = assay: Antibacterial activity against Enterococcus faecalis 36950 assessed as inhibition of bacterial growth incubated for 18 hrs by broth microdilution method
Bacillus subtilis = assay: Antibacterial activity against Bacillus subtilis BS01 assessed as inhibition of bacterial growth incubated for 18 hrs by broth microdilution method
Staphylococcus simulans = assay: Antibacterial activity against Staphylococcus simulans AKA1 assessed as inhibition of bacterial growth incubated for 18 hrs by broth microdilution method
Staphylococcus aureus [5] = assay: Antibacterial activity against Staphylococcus aureus ATCC 29213 assessed as inhibition of bacterial growth incubated for 18 hrs by broth microdilution method
Micrococcus luteus = assay: Antibacterial activity against Micrococcus luteus ML01 assessed as inhibition of bacterial growth incubated for 18 hrs by broth microdilution method
Staphylococcus aureus [6] = assay: Antibacterial activity against Staphylococcus aureus 718306 assessed as inhibition of bacterial growth incubated for 18 hrs by broth microdilution method
Staphylococcus aureus [7] = assay: Antibacterial activity against Staphylococcus aureus 3090 assessed as inhibition of bacterial growth incubated for 18 hrs by broth microdilution method
Enterococcus faecalis [8] = assay: Antibacterial activity against Enterococcus faecalis ATCC 29212 assessed as inhibition of bacterial growth incubated for 18 hrs by broth microdilution method
Staphylococcus aureus [9] = assay: Antibacterial activity against Staphylococcus aureus 1862 assessed as inhibition of bacterial growth incubated for 18 hrs by broth microdilution method
Staphylococcus aureus [10] = assay: Antibacterial activity against Staphylococcus aureus 991 assessed as inhibition of bacterial growth incubated for 18 hrs by broth microdilution method
Staphylococcus aureus [11] = assay: Antibacterial activity against Staphylococcus aureus 16339 assessed as inhibition of bacterial growth incubated for 18 hrs by broth microdilution method
Staphylococcus aureus [12] = assay: Antibacterial activity against Staphylococcus aureus GDE4P037P assessed as inhibition of bacterial growth incubated for 18 hrs by broth microdilution method
Staphylococcus aureus [13] = assay: Antibacterial activity against Staphylococcus aureus 16162 assessed as inhibition of bacterial growth incubated for 18 hrs by broth microdilution method
Staphylococcus aureus [14] = assay: Antibacterial activity against Staphylococcus aureus 669 assessed as inhibition of bacterial growth incubated for 18 hrs by broth microdilution method
Staphylococcus aureus [15] = assay: Antibacterial activity against Staphylococcus aureus 745324 assessed as inhibition of bacterial growth incubated for 18 hrs by broth microdilution method
Enterococcus faecium [16] = assay: Antibacterial activity against Enterococcus faecium 36711 assessed as inhibition of bacterial growth incubated for 18 hrs by broth microdilution method
Staphylococcus aureus [17] = assay: Antibacterial activity against methicillin-resistant Staphylococcus aureus assessed as inhibition of bacterial growth incubated for 18 hrs by broth microdilution method
Enterococcus gallinarum = assay: Antibacterial activity against Enterococcus gallinarum 5F52C assessed as inhibition of bacterial growth incubated for 18 hrs by broth microdilution method

SMILES	MIC (Enterococcus faecium [1]) [µg/mL]	MIC (Staphylococcus aureus [2]) [µg/mL]	MIC (Enterococcus faecium [3]) [µg/mL]	MIC (Enterococcus faecalis [4]) [µg/mL]	MIC (Bacillus subtilis) [µg/mL]	MIC (Staphylococcus simulans) [µg/mL]	MIC (Staphylococcus aureus [5]) [µg/mL]	MIC (Micrococcus luteus) [µg/mL]	MIC (Staphylococcus aureus [6]) [µg/mL]	MIC (Staphylococcus aureus [7]) [µg/mL]	MIC (Enterococcus faecalis [8]) [µg/mL]	MIC (Staphylococcus aureus [9]) [µg/mL]	MIC (Staphylococcus aureus [10]) [µg/mL]	MIC (Staphylococcus aureus [11]) [µg/mL]	MIC (Staphylococcus aureus [12]) [µg/mL]	MIC (Staphylococcus aureus [14]) [µg/mL]	MIC (Staphylococcus aureus [15]) [µg/mL]	MIC (Enterococcus faecium [16]) [µg/mL]	MIC (Staphylococcus aureus [17]) [µg/mL]	MIC (Enterococcus gallinarum) [µg/mL]	other results
CCCc1c(Cl)c(OC)c(Cl)c2c1OC(=O)c1c(CCC)c(Cl)c(O)c(Cl)c1O2	8 (≈ 16.7 µM)	4 (≈ 8.33 µM)	4 (≈ 8.33 µM)	2 (≈ 4.17 µM)	0.5 (≈ 1.04 µM)	1 (≈ 2.08 µM)	32 (≈ 66.6 µM)	1 (≈ 2.08 µM)	16 (≈ 33.3 µM)	8 (≈ 16.7 µM)	16 (≈ 33.3 µM)	8 (≈ 16.7 µM)	16 (≈ 33.3 µM)	8 (≈ 16.7 µM)	4 (≈ 8.33 µM)	8 (≈ 16.7 µM)	8 (≈ 16.7 µM)	4 (≈ 8.33 µM)	8 (≈ 16.7 µM)	2 (≈ 4.17 µM)	MIC (Staphylococcus aureus [13]): 8 µg/mL (≈ 16.7 µM)
CCCc1c(O)c(Oc2c(Cl)c(O)c(Cl)c(CCC)c2C(=O)OC)c(Cl)c(OC)c1Cl	16 (≈ 31.2 µM)	8 (≈ 15.6 µM)	8 (≈ 15.6 µM)	4 (≈ 7.81 µM)	4 (≈ 7.81 µM)	4 (≈ 7.81 µM)	8 (≈ 15.6 µM)	4 (≈ 7.81 µM)	16 (≈ 31.2 µM)	8 (≈ 15.6 µM)	16 (≈ 31.2 µM)	8 (≈ 15.6 µM)	8 (≈ 15.6 µM)	8 (≈ 15.6 µM)	16 (≈ 31.2 µM)	8 (≈ 15.6 µM)	8 (≈ 15.6 µM)	8 (≈ 15.6 µM)	8 (≈ 15.6 µM)	4 (≈ 7.81 µM)	MIC (Staphylococcus aureus [13]): 8 µg/mL (≈ 15.6 µM)
CC1(C)S[C@@H]2[C@H](NC(=O)[C@H](N)c3ccccc3)C(=O)N2[C@H]1C(=O)O [AMPICILLIN]	> 64	64 (≈ 183 µM)	> 64	–	0.125 (≈ 0.358 µM)	> 64	1 (≈ 2.86 µM)	0.13 (≈ 0.372 µM)	> 64	–	1 (≈ 2.86 µM)	4 (≈ 11.4 µM)	4 (≈ 11.4 µM)	64 (≈ 183 µM)	–	8 (≈ 22.9 µM)	4 (≈ 11.4 µM)	> 64	32 (≈ 91.6 µM)	8 (≈ 22.9 µM)	–
CN[C@H](CC(C)C)C(=O)N[C@H]1C(=O)N[C@@H](CC(N)=O)C(=O)N[C@H]2C(=O)N[C@H]3C(=O)N[C@H](C(=O)N[C@H](C(=O)O)c4cc(O)cc(O)c4-c4cc3ccc4O)[C@H](O)c3ccc(c(Cl)c3)Oc3cc2cc(c3O[C@@H]2O[C@H](CO)[C@@H](O)[C@H](O)[C@H]2O[C@H]2C[C@](C)(N)[C@H](O)[C@H](C)O2)Oc2ccc(cc2Cl)[C@H]1O [VANCOMYCIN]	> 64	–	> 64	0.5 (≈ 0.345 µM)	0.125 (≈ 0.0863 µM)	0.5 (≈ 0.345 µM)	–	0.13 (≈ 0.0897 µM)	–	–	2 (≈ 1.38 µM)	–	–	–	–	–	–	> 64	–	4 (≈ 2.76 µM)	–
CCCc1c(Cl)c(O)c(Cl)c2c1Oc1c(Cl)c(O)c(Cl)c(CCC)c1C(=O)O2	4 (≈ 8.58 µM)	8 (≈ 17.2 µM)	8 (≈ 17.2 µM)	1 (≈ 2.15 µM)	0.25 (≈ 0.536 µM)	2 (≈ 4.29 µM)	2 (≈ 4.29 µM)	2 (≈ 4.29 µM)	4 (≈ 8.58 µM)	4 (≈ 8.58 µM)	2 (≈ 4.29 µM)	2 (≈ 4.29 µM)	2 (≈ 4.29 µM)	2 (≈ 4.29 µM)	2 (≈ 4.29 µM)	2 (≈ 4.29 µM)	4 (≈ 8.58 µM)	4 (≈ 8.58 µM)	2 (≈ 4.29 µM)	2 (≈ 4.29 µM)	MIC (Staphylococcus aureus [13]): 4 µg/mL (≈ 8.58 µM)
COc1c(Cl)c(O)c(Cl)c2c1C(=O)O[C@H](C)C2	> 128	> 128	> 128	> 128	> 128	> 128	> 128	> 128	> 128	> 128	> 128	> 128	> 128	> 128	> 128	> 128	> 128	> 128	> 128	> 128	MIC (Staphylococcus aureus [13]): > 128 µg/mL

From ChEMBL document CHEMBL5252555, “Antimicrobial Polyketides from the Marine-Derived Fungus Spiromastix sp. SCSIO F190” (J Nat Prod, 2023)
